Assay results as given in patent publication US10709653B2, “Cosmetic compositions comprising spiculisporic acid and at least one sulfate and/or sulfonate surfactant” (L'OREAL, priority 2013, dated 2020).
Where two headings read alike, the source gives them in different places.

Tests used:
[1] = cited from earlier work
[2] = Aspect and pH on storage of S-acid solutions salified with KOH, Arg or TEA with sulfate or sulfonate surfactant (Example 3); format: physicochemical; design: key to Aspect (macroscopic observation) 15 days 4° C. / Aspect (macroscopic observation) 15 days RT: *: showed a precipitate; settings: S-acid 4.00% MA
Description: The compositions of Table 3 above were prepared according to the following operating procedure:
Phase A was heated to 40° C. After solubilization of the S-acid, the phase B was added to the Phase A. Next, the phase C was added after phase B.
A portion of the solution was stored at room temperature and the other one at 4° C.

[3] = Aspect and pH on storage of spiculisporic acid solutions pre-solubilized with KOH, alone or with surfactants (Example 2); format: physicochemical
Description: Solutions containing the S-acid at 4% or 8% (neutralized with an amount of KOH calculated so as to obtain the di-potassium salt of S-acid, i.e. R1=2) and surfactants, were made.

[4] = sulfate surfactant 4.00% MA, base Arg, R 1.10
[5] = sulfate surfactant 4.00% MA, base Arg, R 1.25
[6] = sulfate surfactant 4.00% MA, base Arg, R 1.75
[7] = sulfate surfactant 4.00% MA, base Arg, R 2.00
[8] = sulfate surfactant 4.00% MA, base KOH, R 2.00
[9] = sulfate surfactant 4.00% MA, base TEA, R 1.10
[10] = sulfate surfactant 4.00% MA, base TEA, R 1.25
[11] = sulfate surfactant 4.00% MA, base TEA, R 1.75
[12] = sulfate surfactant 4.00% MA, base TEA, R 2.00
[13] = sulfonate surfactant 4.00% MA, base Arg, R 1.10
[14] = sulfonate surfactant 4.00% MA, base Arg, R 1.25
[15] = sulfonate surfactant 4.00% MA, base Arg, R 1.75
[16] = sulfonate surfactant 4.00% MA, base Arg, R 2.00
[17] = sulfonate surfactant 4.00% MA, base KOH, R 2.00
[18] = sulfonate surfactant 4.00% MA, base TEA, R 1.10
[19] = sulfonate surfactant 4.00% MA, base TEA, R 1.25
[20] = sulfonate surfactant 4.00% MA, base TEA, R 1.75
[21] = sulfonate surfactant 4.00% MA, base TEA, R 2.00
[22] = S-acid 4% MA, KOH (R=2), named surfactant 4% if any

pH 15 days 4° C. [2, 4]: 5.19 | pH 15 days RT [2, 4]: 5.11 | pH 15 days 4° C. [2, 5]: 5.33 | pH 15 days RT [2, 5]: 5.34 | pH 15 days 4° C. [2, 6]: 5.93 | pH 15 days RT [2, 6]: 5.95 | pH 15 days 4° C. [2, 7]: 6.25 | pH 15 days RT [2, 7]: 6.21 | Aspect (macroscopic observation) 15 days 4° C. [2, 8]: * | Aspect (macroscopic observation) 15 days RT [2, 8]: * | pH 15 days 4° C. [2, 8]: 6.24 | pH 15 days RT [2, 8]: 6.33 | pH 15 days 4° C. [2, 9]: 5.26 | pH 15 days RT [2, 9]: 5.19 | pH 15 days 4° C. [2, 10]: 5.38 | pH 15 days RT [2, 10]: 5.39 | pH 15 days 4° C. [2, 11]: 6.02 | pH 15 days RT [2, 11]: 5.98 | pH 15 days 4° C. [2, 12]: 6.32 | pH 15 days RT [2, 12]: 6.32 | pH 15 days 4° C. [2, 13]: 5.07 | pH 15 days RT [2, 13]: 5.00 | pH 15 days 4° C. [2, 14]: 5.28 | pH 15 days RT [2, 14]: 5.27 | pH 15 days 4° C. [2, 15]: 5.89 | pH 15 days RT [2, 15]: 5.93 | pH 15 days 4° C. [2, 16]: 6.19 | pH 15 days RT [2, 16]: 6.18 | Aspect (macroscopic observation) 15 days 4° C. [2, 17]: * | pH 15 days 4° C. [2, 17]: 6.34 | pH 15 days RT [2, 17]: 6.43 | pH 15 days 4° C. [2, 18]: 5.22 | pH 15 days RT [2, 18]: 5.17 | pH 15 days 4° C. [2, 19]: 5.37 | pH 15 days RT [2, 19]: 5.33 | pH 15 days 4° C. [2, 20]: 5.96 | pH 15 days RT [2, 20]: 5.97 | pH 15 days 4° C. [2, 21]: 6.34 | pH 15 days RT [2, 21]: 6.33 | pH t0 RT ([3]; S-acid 4% MA, KOH (R=2), named surfactant 4% active material if any): 5.97 | pH 20 days after storage T = 4° C. [3, 22]: 6.01 | pH 20 days after storage RT [3, 22]: 6.02 | Aspect after 20 days of storage at 4° C. ([3]; S-acid 4%, KOH (R=2), surfactant 4% if any): precipitation | pH 20 days after storage T = 4° C. ([3]; S-acid 8% MA, KOH (R=2)): 6.47 | pH 20 days after storage RT ([3]; S-acid 8% MA, KOH (R=2)): 6.47 | pH t0 RT ([3]; S-acid 8% MA, neutralized with KOH (R=2)): 6.43 | Aspect after 20 days of storage at 4° C. ([3]; S-acid 8%, KOH (R=2)): precipitation
Structure (SMILES): CCCCCCCCCCC(C(=O)O)C1(C(=O)O)CCC(=O)O1 (stereo not drawn) [S-acid, 4,5-dicarboxy-4-pentadecanolide]
Solubility in water ([1]; high temperature): partly soluble | Solubility in ethanol ([1]; room temperature): soluble | Solubility in fats ([1]; room temperature): insoluble | Solubility in water ([1]; room temperature): insoluble
